Measurements published in patent US11154071B2, “Sweetener iso-mogroside V” (Glvaudan SA, priority 2007, dated 2021).

Experiments:
Assay type in all cases: in vivo
[1] = test system: sweet sensitive panelists; experiment: Determination of the sweetness threshold of iso-mogroside V: isointensity to sucrose solutions, paired comparison
Procedure: […] Samples were paired and tasted left to right with rinsing of the mouth (water) in-between. 20 ppm iso-mogroside V was evaluated as described but with 4 sweet sensitive panelists and 0.5, 1.0 and 1.5% sucrose.

[2] = test system: sweet sensitive panelists; experiment: Sweetness enhancement of iso-mogroside V at near threshold concentration in 7% sucrose solution, sensory panel; conditions: 10 ppm iso-mogroside V in 7% sucrose solution
Procedure: The sweetness enhancement properties of iso-mogroside V was determined using a sample having a concentration of 10 ppm iso-mogroside V, which is near the sweetness detection threshold, in 7% sucrose solution.
The iso-mogroside V sample was directly compared to samples of 7%, 8% or 9% sucrose, and panelists were instructed to compare the sweetness intensity of the samples.
The comparisons were carried out by a panel of 6 sweet sensitive panelists. All samples were presented to panelists in 15 ml aliquots at ambient temperature. Panelists compared the iso-mogroside V sample to each of the sucrose samples.

[3] = Preliminary experiments on flavour enhancing effect on sweeteners
[4] = test system: sweet sensitive panelists; experiment: Comparison of the sweetness of mogroside V and iso-mogroside V in water, blind samples, sensory panel; conditions: panel of 4
Procedure: The intensity of sweet taste of iso-mogroside V when compared to mogroside V was determined in water using near-sweetness detection threshold concentrations. The direct comparison was carried out by a panel of 4 sweet sensitive panelists. Blind samples (identity unidentifiable by panelists) were randomly presented to panelists in 15 ml aliquots at ambient temperature. Sensory evaluation started with the lower sample concentration (10 ppm).

## C[C@H](CC[C@@H](O[C@@H]1O[C@H](CO[C@@H]2O[C@H](CO)[C@@H](O)[C@H](O)[C@H]2O)[C@@H](O)[C@H](O)[C@H]1O[C@@H]1O[C@H](CO)[C@@H](O)[C@H](O)[C@H]1O)C(C)(C)O)[C@H]1CC[C@@]2(C)[C@@H]3CC=C4[C@@H](CC[C@H](O[C@@H]5O[C@H](CO)[C@@H](O[C@@H]6O[C@H](CO)[C@@H](O)[C@H](O)[C@H]6O)[C@H](O)[C@H]5O)C4(C)C)[C@]3(C)[C@H](O)C[C@]12C [iso-mogroside V, 3-[(4-O-β-D-glucopyranosyl-β-D-glucopyranosyl)oxy]-mogrol-24-O-β-D-glucopyranosyl-(1→2)-O-[β-D-glucopyranosyl-(1→6)]-β-D-glucopyranoside]
[1]; 10 ppm in water vs 0% sucrose (water), 5 panelists
  Taste of iso-mogroside V samples compared to sucrose: sweeter
[1]; 10 ppm in water vs 0.5% sucrose, 5 panelists
  Taste of iso-mogroside V samples compared to sucrose: isosweet
[1]; 10 ppm in water vs 1.0% sucrose, 5 panelists
  Taste of iso-mogroside V samples compared to sucrose: less sweet
[1]; 20 ppm in water vs 0.5% sucrose, 4 panelists
  Taste of iso-mogroside V samples compared to sucrose: sweeter
[1]; 20 ppm in water vs 1% sucrose, 4 panelists
  Taste of iso-mogroside V samples compared to sucrose: isosweet
[1]; 20 ppm in water vs 1.5% sucrose, 4 panelists
  Taste of iso-mogroside V samples compared to sucrose: less sweet
[1]; about 0.2 ppm in water as stated
  equivalent sweetness intensity at the sweetness detection threshold: about 0.5 % sucrose
[1]; from 10 ppm isosweet to 0.5% sucrose
  sweetness relative to sucrose: about 500 times
[2]
  panelists who found the sample as sweet or sweeter as 8% sucrose: 5 of 6
  panelists who found the sample sweeter than 7% but less sweet than 8% sucrose: 1 of 6
[2]; after subtracting own sweetness of 0.5% sucrose
  sweetness enhancement effect (equal to sucrose): ≥ 0.5 % sucrose
[2]; compared to 7%, 8% or 9% sucrose, panel of 6
  sweetness of iso-mogroside V sample (equal to sucrose): ≥ 8 % sucrose
[3]
  flavour enhancing effect on sweeteners compared to its known isomer (mogroside V): particularly high flavour enhancing effect
[4]; 10 ppm in water
  Taste of iso-mogroside V samples compared to mogroside V: sweeter
  panelists who indicated iso-mogroside V is sweeter than mogroside V: two
[4]; 20 ppm in water
  Taste of iso-mogroside V samples compared to mogroside V: sweeter
  panelists who indicated iso-mogroside V is sweeter than mogroside V: 4 panelists
